Our source for the inhibition values is patent publication US8436043B2 (Takeda Pharmaceutical Company Limited, priority 2008, dated 2013).

SMILES strings stand for the structures.

For this assay, the target named is T1, human glucagon receptor (Homo sapiens, UniProt P47871).
T1 construct: made in house; host or cells: FreeStyle CHO cells, transient transfection with pMSRαneo/hGCGR; membrane fraction (35,000 rpm pellet)
T1 sequence (P47871 26-477): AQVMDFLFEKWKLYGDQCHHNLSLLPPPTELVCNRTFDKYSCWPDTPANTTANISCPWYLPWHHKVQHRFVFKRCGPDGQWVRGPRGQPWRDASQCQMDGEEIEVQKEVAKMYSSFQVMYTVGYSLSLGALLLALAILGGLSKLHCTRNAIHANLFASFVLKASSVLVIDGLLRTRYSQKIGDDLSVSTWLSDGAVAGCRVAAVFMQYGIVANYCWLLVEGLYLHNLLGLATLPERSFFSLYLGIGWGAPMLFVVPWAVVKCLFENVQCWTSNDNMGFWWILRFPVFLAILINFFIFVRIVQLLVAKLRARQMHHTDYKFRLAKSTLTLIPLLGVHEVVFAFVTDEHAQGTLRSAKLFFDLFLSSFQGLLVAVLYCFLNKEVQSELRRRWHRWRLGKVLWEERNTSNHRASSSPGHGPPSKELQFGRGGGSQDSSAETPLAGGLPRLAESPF
The assay is described as follows: Glucagon binding inhibitory activity ([125I]-glucagon binding to glucagon receptor membrane protein). As to conditions: test compound 10 μM; 0.4% DMSO = 0%, non-labeled glucagon 1 μM = 100%; read-out: inhibitory rate (%) at 10 μM. The procedure, abridged: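 Receptor source was a membrane fraction of transiently transfected CHO cells bearing human receptor; 90 min room-temperature binding, filtration harvest, scintillation counting.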
`CCCCCCC(Nc1ccc(C(=O)N(C)CCC(=O)O)cc1)c1cc2cc(Cl)ccc2n1C` (centres unmarked) [Example A141, 3-{[(4-{[1-(5-chloro-1-methyl-1H-indol-2-yl)heptyl]amino}phenyl)carbonyl](methyl)amino}propanoic acid]: the inhibition at 10 µM came to 86%.

Turning to `Cc1c(C(Nc2ccc(C(=O)NCCC(=O)O)cc2)C2CCCCC2)sc2ncccc12` (centres unmarked) [Example A142, 3-{[(4-{[cyclohexyl(3-methylthieno[2,3-b]pyridin-2-yl)methyl]amino}phenyl)carbonyl]amino}propanoic acid], the inhibition at 10 µM came to 87%.

Turning to `Cc1c(C(Nc2ccc(C(=O)N(C)CCC(=O)O)cc2)C2CCCCC2)sc2ncccc12` (centres unmarked) [Example A143, 3-{[(4-{[cyclohexyl(3-methylthieno[2,3-b]pyridin-2-yl)methyl]amino}phenyl)carbonyl](methyl)amino}propanoic acid], the inhibition at 10 µM was determined as 75%.

For `Cc1c(C(Nc2ccc(C(=O)NCCC(=O)O)cc2)C2CCCCC2)sc2cccnc12` (centres unmarked) [Example A144, 3-{[(4-{[cyclohexyl(3-methylthieno[3,2-b]pyridin-2-yl)methyl]amino}phenyl)carbonyl]amino}propanoic acid], the inhibition at 10 µM was determined as 82%.

As for `Cc1c(C(Nc2ccc(C(=O)N(C)CCC(=O)O)cc2)C2CCCCC2)sc2cccnc12` (centres unmarked) [Example A145, 3-{[(4-{[cyclohexyl(3-methylthieno[3,2-b]pyridin-2-yl)methyl]amino}phenyl)carbonyl](methyl)amino}propanoic acid], the inhibition at 10 µM stood at 76%.

As for `Cc1c(C(Nc2ccc(C(=O)N(C)CCC(=O)O)cc2)C2CCCCC2)sc2cc(C(F)(F)F)cnc12` (centres unmarked) [Example A146, 3-[{[4-({cyclohexyl[3-methyl-6-(trifluoromethyl)thieno[3,2-b]pyridin-2-yl]methyl}amino)phenyl]carbonyl}(methyl)amino]propanoic acid], the inhibition at 10 µM is 77%.

For the compound `CSCCOc1ccc2oc(C(Nc3ccc(C(=O)N(C)CCC(=O)O)cc3)C3CCCCC3)c(C)c2c1` (centres unmarked) [Example A147, 3-[({4-[(cyclohexyl{3-methyl-5-[2-(methylthio)ethoxy]-1-benzofuran-2-yl}methyl)amino]phenyl}carbonyl)(methyl)amino]propanoic acid], the inhibition at 10 µM was determined as 99%.

As for `CSCCOc1ccc2oc(C(Nc3ccc(C(=O)NCCC(=O)O)cc3)C3CCCCC3)c(C)c2c1` (centres unmarked) [Example A148, 3-[({4-[(cyclohexyl{3-methyl-5-[2-(methylthio)ethoxy]-1-benzofuran-2-yl}methyl)amino]phenyl}carbonyl)amino]propanoic acid], the inhibition at 10 µM was 94%.

For `COCCOc1ccc2oc(C(Nc3ccc(C(=O)NCCC(=O)O)cc3)C3CCCCC3)c(C)c2c1` (centres unmarked) [Example A149, 3-[{[4-({cyclohexyl[5-(2-methoxyethoxy)-3-methyl-1-benzofuran-2-yl]methyl}amino)phenyl]carbonyl}amino]propanoic acid], the inhibition at 10 µM worked out at 69%.

With `CSCCCOc1ccc2oc(C(Nc3ccc(C(=O)N(C)CCC(=O)O)cc3)C3CCCCC3)c(C)c2c1` (centres unmarked) [Example A150, 3-[({4-[(cyclohexyl{3-methyl-5-[3-(methylsulfanyl)propoxy]-1-benzofuran-2-yl}methyl)amino]phenyl}carbonyl)(methyl)amino]propanoic acid], the inhibition at 10 µM was determined as 81%.

Take `CSCCCOc1ccc2oc(C(Nc3ccc(C(=O)NCCC(=O)O)cc3)C3CCCCC3)c(C)c2c1` (centres unmarked) [Example A151, 3-[({4-[(cyclohexyl{3-methyl-5-[3-(methylsulfanyl)propoxy]-1-benzofuran-2-yl}methyl)amino]phenyl}carbonyl)amino]propanoic acid]: the inhibition at 10 µM was 78%.

On to `Cc1c(C(Nc2ccc(C(=O)N(C)CCC(=O)O)cc2)C2CCCCC2)oc2ccc(OCCCS(C)(=O)=O)cc12` (centres unmarked) [Example A152, 3-[({4-[(cyclohexyl{3-methyl-5-[3-(methylsulfonyl)propoxy]-1-benzofuran-2-yl}methyl)amino]phenyl}carbonyl)(methyl)amino]propanoic acid], for which the inhibition at 10 µM amounted to 76%.

On to `Cc1c(C(Nc2ccc(C(=O)NCCC(=O)O)cc2)C2CCCCC2)oc2ccc(OCCCS(C)(=O)=O)cc12` (centres unmarked) [Example A153, 3-[({4-[(cyclohexyl{3-methyl-5-[3-(methylsulfonyl)propoxy]-1-benzofuran-2-yl}methyl)amino]phenyl}carbonyl)amino]propanoic acid], for which the inhibition at 10 µM was determined as 74%.

Consider `Cc1c(C(Nc2ccc(C(=O)N(C)CCC(=O)O)cc2)C2CCCCC2)oc2ccc(OCc3ccccc3)cc12` (centres unmarked) [Example A154, 3-[{[4-({[5-(benzyloxy)-3-methyl-1-benzofuran-2-yl](cyclohexyl)methyl}amino)phenyl]carbonyl}(methyl)amino]-propanoic acid], for which the inhibition at 10 µM amounted to 82%.

In the case of `Cc1c(C(Nc2ccc(C(=O)N(C)CCC(=O)O)cc2)C2CCCCC2)oc2ccc(OCc3ccccn3)cc12` (centres unmarked) [Example A155, 3-[{[4-({cyclohexyl[3-methyl-5-(pyridin-2-ylmethoxy)-1-benzofuran-2-yl]methyl}amino)phenyl]carbonyl}(methyl)amino]propanoic acid], the inhibition at 10 µM was 81%.

Regarding `Cc1c(C(Nc2ccc(C(=O)N(C)CCC(=O)O)cc2)C2CCCCC2)oc2ccc(OCc3cccnc3)cc12` (centres unmarked) [Example A156, 3-[{[4-({cyclohexyl[3-methyl-5-(pyridin-3-ylmethoxy)-1-benzofuran-2-yl]methyl}amino)phenyl]carbonyl}(methyl)amino]propanoic acid], the inhibition at 10 µM amounted to 80%.

Turning to `Cc1c(C(Nc2ccc(C(=O)N(C)CCC(=O)O)cc2)C2CCCCC2)oc2ccc(OCc3ccncc3)cc12` (centres unmarked) [Example A157, 3-[{[4-({cyclohexyl[3-methyl-5-(pyridin-4-ylmethoxy)-1-benzofuran-2-yl]methyl}amino)phenyl]carbonyl}(methyl)amino]propanoic acid], the inhibition at 10 µM was 80%.

In the case of `Cc1c(C(Nc2ccc(C(=O)NCCC(=O)O)cc2)C2CCCCC2)oc2ccc(OCc3ccccc3)cc12` (centres unmarked) [Example A158, 3-({[4-({[5-(benzyloxy)-3-methyl-1-benzofuran-2-yl](cyclohexyl)methyl}amino)phenyl]carbonyl}amino)propanoic acid], the inhibition at 10 µM was found to be 79%.

Take `Cc1c(C(CC(C)C)Nc2ccc(C(=O)N(C)CCC(=O)O)cc2)oc2ccc(OCc3ccccc3)cc12` (centres unmarked) [Example A159, 3-[{[4-({1-[5-(benzyloxy)-3-methyl-1-benzofuran-2-yl]-3-methylbutyl}amino)phenyl]carbonyl}(methyl)amino]propanoic acid]: the inhibition at 10 µM was 74%.

In the case of `Cc1c(C(Nc2ccc(C(=O)N(C)CCC(=O)O)cc2)C2CCCCC2)oc2ccc(OC3CCSCC3)cc12` (centres unmarked) [Example A160, 3-[{[4-({cyclohexyl[3-methyl-5-(tetrahydro-2H-thiopyran-4-yloxy)-1-benzofuran-2-yl]methyl}amino)phenyl]carbonyl}(methyl)amino]propanoic acid], the inhibition at 10 µM amounted to 92%.

Take `Cc1c(C(Nc2ccc(C(=O)NCCC(=O)O)cc2)C2CCCCC2)oc2cccc(F)c12` (centres unmarked) [Example A161, 3-{[(4-{[cyclohexyl(4-fluoro-3-methyl-1-benzofuran-2-yl)methyl]amino}phenyl)carbonyl]amino}propanoic acid]: the inhibition at 10 µM came out at 84%.

As to `Cc1c(C(Nc2ccc(C(=O)N(C)CCC(=O)O)cc2)C2CCCCC2)oc2cccc(F)c12` (centres unmarked) [Example A162], the inhibition at 10 µM was 79%.

As to `Cc1c(C(Nc2ccc(C(=O)NCCC(=O)O)cc2)C2CCCCC2)oc2c(F)cc(F)cc12` (centres unmarked) [Example A163, 3-{[(4-{[cyclohexyl(5,7-difluoro-3-methyl-1-benzofuran-2-yl)methyl]amino}phenyl)carbonyl]amino}propanoic acid], the inhibition at 10 µM was found to be 87%.

Turning to `Cc1c(C(Nc2ccc(C(=O)N(C)CCC(=O)O)cc2)C2CCCCC2)oc2c(F)cc(F)cc12` (centres unmarked) [Example A164, 3-{[(4-{[cyclohexyl(5,7-difluoro-3-methyl-1-benzofuran-2-yl)methyl]amino}phenyl)carbonyl](methyl)amino}propanoic acid], the inhibition at 10 µM turned out to be 85%.

On to `Cc1c(C(C)Nc2ccc(C(=O)NCCC(=O)O)cc2)oc2ccc(OCc3ccccc3)cc12` (centres unmarked) [Example A165, 3-({[4-({1-[5-(benzyloxy)-3-methyl-1-benzofuran-2-yl]ethyl}amino)phenyl]carbonyl}amino)propanoic acid], for which the inhibition at 10 µM is 85%.

On to `Cc1c(C(C)Nc2ccc(C(=O)N(C)CCC(=O)O)cc2)oc2ccc(OCc3ccccc3)cc12` (centres unmarked) [Example A166, 3-[{[4-({1-[5-(benzyloxy)-3-methyl-1-benzofuran-2-yl]ethyl}amino)phenyl]carbonyl}(methyl)amino]propanoic acid], for which the inhibition at 10 µM worked out at 75%.

For `Cc1c(C(Nc2ccc(C(=O)NCCC(=O)O)cc2)C2CCCCC2)oc2ccc(OCc3ccnc(F)c3)cc12` (centres unmarked) [Example A167, 3-[({4-[(cyclohexyl{5-[(2-fluoropyridin-4-yl)methoxy]-3-methyl-1-benzofuran-2-yl}methyl)amino]phenyl}carbonyl)amino]propanoic acid], the inhibition at 10 µM is 86%.

In the case of `Cc1c(C(Nc2ccc(C(=O)N(C)CCC(=O)O)cc2)C2CCCCC2)oc2ccc(OCc3ccnc(F)c3)cc12` (centres unmarked) [Example A168, 3-[({4-[(cyclohexyl{5-[(2-fluoropyridin-4-yl)methoxy]-3-methyl-1-benzofuran-2-yl}methyl)amino]phenyl}carbonyl)(methyl)amino]propanoic acid], the inhibition at 10 µM is 90%.

For `Cc1c(C(Nc2ccc(C(=O)NCCC(=O)O)cc2)C2CCCCC2)oc2ccc(OCc3ccc(Cl)nc3)cc12` (centres unmarked) [Example A169, 3-{[(4-{[{5-[(6-chloropyridin-3-yl)methoxy]-3-methyl-1-benzofuran-2-yl}(cyclohexyl)methyl]amino}phenyl)carbonyl]amino}propanoic acid], the inhibition at 10 µM was 86%.
